Data on eleven compounds can be found in patent US11124508B2 (priority 2017, dated 2021).

The compound `Cc1c(Cl)ccc2c(C3=NC(C)(C)C(F)(F)c4ccccc43)cnn12` [X.001, 1-(6-chloro-7-methyl-pyrazolo[1,5-a]pyridin-3-yl)-4,4-difluoro-3,3-dimethyl-isoquinoline] gave a melting point of 166 to 168 °C.
In turn, `CC1(C)N=C(c2cnn3cc(Cl)ccc23)c2ccccc2C1(F)F` [X.003, 1-(6-chloropyrazolo[1,5-a]pyridin-3-yl)-4,4-difluoro-3,3-dimethyl-isoquinoline] showed a melting point of 113 to 118 °C.
`Cc1ccc2c(C3=NC(C)(C)C(F)(F)c4ccccc43)cnn2c1` [X.005, 4,4-difluoro-3,3-dimethyl-1-(6-methylpyrazolo[1,5-a]pyridin-3-yl)isoquinoline] displayed a melting point of 105 to 107 °C.
With `CC1(C)N=C(c2cnn3cc(Br)ccc23)c2ccccc2C1(F)F` [X.006, 1-(6-bromopyrazolo[1,5-a]pyridin-3-yl)-4,4-difluoro-3,3-dimethyl-isoquinoline] the figure was 127 to 129 °C; with `Cc1c(Br)ccc2c(C3=NC(C)(C)C(F)(F)c4ccccc43)cnn12` [X.007, 1-(6-bromo-7-methyl-pyrazolo[1,5-a]pyridin-3-yl)-4,4-difluoro-3,3-dimethyl-isoquinoline], 180 to 182 °C; with `Cc1ccc2c(C3=NC(C)(C)C(F)(F)c4ccccc43)cnn2c1C` [X.011, 1-(6,7-dimethylpyrazolo[1,5-a]pyridin-3-yl)-4,4-difluoro-3,3-dimethyl-isoquinoline], 160 to 161 °C.
With `Cc1ccc2c(C3=NC(C)(C)C(C)(C)c4c(F)cccc43)cnn2c1C` [X.012, 1-(6,7-dimethylpyrazolo[1,5-a]pyridin-3-yl)-5-fluoro-3,3,4,4-tetramethyl-isoquinoline], the melting point was 175 to 176 °C.
With `Cc1cccc2c(C3=NC(C)(C)C(C)(C)c4c(F)cccc43)cnn12` [X.013, 5-fluoro-3,3,4,4-tetramethyl-1-(7-methylpyrazolo[1,5-a]pyridin-3-yl)isoquinoline] the figure was 134 to 136 °C; with `Cc1ccn2c(C3=NC(C)(C)C(F)(F)c4ccccc43)cnc2c1C` [X.014, 1-(7,8-dimethylimidazo[1,2-a]pyridin-3-yl)-4,4-difluoro-3,3-dimethyl-isoquinoline], 159 to 161 °C.
The figure for `Cc1ccn2c(C3=NC(C)(C)C(C)(C)c4c(F)cccc43)cnc2c1C` [X.016, 1-(7,8-dimethylimidazo[1,2-a]pyridin-3-yl)-5-fluoro-3,3,4,4-tetramethyl-isoquinoline] is 185 to 186 °C.
The figure for `Cc1cccn2c(C3=NC(C)(C)C(C)(C)c4c(F)cccc43)cnc12` [X.019, 5-fluoro-3,3,4,4-tetramethyl-1-(8-methylimidazo[1,2-a]pyridin-3-yl)isoquinoline] is 160 to 161 °C.

One may read the melting point as the temperature of the solid-liquid transition.
